Reference: patent EP2601963B1, “N-ISOVALEROYL-L-GLUTAMYL-L-TRYPTOPHAN AS AN AGENT INHIBITING THE FORMATION OF ULCERS IN THE STOMACH AND THE DUODENUM” (Obshestvo S Ogranichennoj Otvetstvennostju "CytoNIR", priority 2010, dated 2015)

Assays:
[1] = test system: indomethacin-induced gastric ulcers; test: Indomethacin-induced ulcer model, preventive treatment: gastric lesions; assay type: in vivo, male Wistar rats; design: key to GA1 (gastroprotective activity calculated for number of lesions): GA1 = Pauls Index of control / Pauls Index of treated group; key to GA2 (gastroprotective activity calculated for lesion size): GA2 = Ulcer Index of control / Ulcer Index of treated group; key to Ulcer Index: UI = mean lesion area in group x % animals with lesions / 100; Small round Size / Total Size / Large round Size / Linear Size / Lesion Size: unit not given here; conditions: for # Lesions / % Animals with Ulcers / GA1 (gastroprotective activity calculated for number of lesions) / GA2 (gastroprotective activity calculated for lesion size) / Lesion Size / PI / Ulcer Index / Large round Amount / Large round Size / Linear Amount / Linear Size / Small round Amount / Small round Size / Total Amount / Total Size: preventive; for Large round Amount / Large round Size / Linear Amount / Linear Size / Small round Amount / Small round Size / Total Amount / Total Size: indomethacin-induced ulcers
Method: (§1) All studies were conducted on male Wistar rats weighing 220 ± 20 g, obtained from Rappolovo nursery (Leningrad oblast). For 14 days prior to the experiment, the animals were held in isolation. The animals were handled in accordance with the European Convention for the Protection of Vertebrate Animals used for Experimental and Other Scientific Purposes (Strasburg, 1986). The animals were held in standard plastic cages and fed a standard diet of PK120-3 (granulated feed in accordance with order # 1179 M3 USSR 10/10/1983) with a free access to water.
(§2) Animals' body weight changes were monitored throughout the experiment. The experimental animals were then sacrificed by decapitation, and their blood was collected in test tubes. The stomachs were extracted, dissected along the major curve, rinsed with cold saline solution, and the mucosa was carefully examined through a magnifying glass under bright lights. The mucosa was inspected for color, the presence of hyperemia and its intensity. The number of lesions, which were differentiated into small round (less than 1 mm), linear, and large lesions (more than 1mm) and the size of the area they covered were calculated. The average number of lesions per one animal in a group and the percentage of animals with ulcers were also calculated. Pauls Index (PI) was used as an integral indicator of the number of lesions and was calculated as follows: • PI = average number of lesions in a group x % of animals with lesions/100 [Pauls F., Wick A.M.,Mac. Key E.M. et al. An assau method for anti ulcer substances // Gastroenterology.- 1947. #8.- p.p.774 - 782]. Ulcer index UI was calculated as: UI = average lesion area size in the group x % of animals with lesions/100; gastroprotective activity GA1 was calculated as: GA1 = PI of the control group/PI of the experimental group, GA2 = UI of the control group/UI of the experimental group.
Five groups of 10 animals per group were prepared for the experiment as described in Example 1.
In each series of experiments, the animals were divided into experimental and control groups at 10 animals per group. The animals in the experimental group were orally administered the proposed medication or a comparator drug, and the control animals were given distilled water in the same amount. • control group received distilled water per os; • experimental group 1 received 0.1 mkg/kg N-isovaleroyl-L-glutamyl-L-tryptophan; • experimental group 2 received 10 mkg/kg N-isovaleroyl-L-glutamyl-L-tryptophan; • experimental group 3 received 200 mkg/kg of the comparator drug Sucralfate.
The efficacy of the course of preventive treatment with the claimed composition was evaluated 24 hrs. post indomethacin administration. The study was conducted as in Example 1.

[2] = test system: stress-induced gastric ulcers; test: Water-immersion stress model: gastric lesions, preventive treatment; assay type: in vivo, male Wistar rats; conditions: 200 mg/kg + stress
Method: as §1
In each series, the animals were divided into experimental and control groups with 10 rats per group. The animals in the experimental groups were orally administered the claimed preparation or a comparator drug, and the control group animals received distilled water in the same amount.
The experimental animals were divided into 5 groups, 10 animals each. The animals received the following therapy: • control group received distilled water per os; • experimental group 1 received 0.1 mkg/kg N-isovaleroyl-L-glutamyl-L-tryptophan; • experimental group 2 received 10 mkg/kg N-isovaleroyl-L-glutamyl-L-tryptophan; […]; • experimental group 4 received 50 mkg/kg of the comparator drug Misoprostol;
The experiment was conducted as follows: • The proposed drug, comparator drugs, and distilled water were administered once daily over 7 days, and on the day of the ulcerogenic stress induction one hour prior to the stress.
The rats deprived of food for 18 hrs. were placed into special cases and immersed in water vertically to the level of their xyphoids. The animals were held in this position for 5 hrs. at 23° C water temperature. After that, the animals were removed from the experiment.
as §2, with “group. The proposed drug was considered active when GA ≥ 2.” for “group.”

[3] = 0.1 mkg/kg + Indomethacin 20 mg/kg
[4] = 10 mkg/kg + Indomethacin 20 mg/kg

## N-isovaleroyl-L-glutamyl-L-tryptophan [VGT preparation]
[1]; [3]
  # Lesions: 7.5 ± 1.0
  % Animals with Ulcers: 100%
  GA1 (gastroprotective activity calculated for number of lesions): 2.84
  GA2 (gastroprotective activity calculated for lesion size): 5.51
  Lesion Size: 4.1 ± 0.9
  PI: 7.5
  Ulcer Index: 4.1
[1]; 0.1 mkg/kg
  Large round Amount: 2.7 ± 0.5
  Large round Size: 1.4 ± 0.3
  Linear Amount: 2.0 ± 0.7
  Linear Size: 1.9 ± 0.7
  Small round Amount: 2.8 ± 0.7
  Small round Size: 0.8 ± 0.2
  Total Amount: 7.5 ± 1.0
  Total Size: 4.1 ± 0.9
[1]; [4]
  # Lesions: 8.3 ± 1.7
  % Animals with Ulcers: 100%
  GA1 (gastroprotective activity calculated for number of lesions): 2.57
  GA2 (gastroprotective activity calculated for lesion size): 5.51
  Lesion Size: 4.1 ± 1.6
  PI: 8.3
  Ulcer Index: 4.1
[1]; 10.0 mkg/kg
  Large round Amount: 3.5 ± 0.9
  Large round Size: 1.7 ± 0.6
  Linear Amount: 1.2 ± 0.5
  Linear Size: 1.8 ± 1.1
  Small round Amount: 3.6 ± 1.3
  Small round Size: 0.5 ± 0.1
  Total Amount: 8.3 ± 1.7
  Total Size: 4.1 ± 1.6
[1]; preventive treatment, indomethacin-induced lesions
  size of the lesions in the gastric mucosa reduced: 5 times

## aluminum complex of beta-D-fructofuranosyl-alpha-D-glucopyranoside octakis (hydrosulfate) [Sucralfate]
[2]
  # Lesions: 8.8 ± 1.4
  % Animals with Ulcers: 90%
  GA1 (gastroprotective activity calculated for number of lesions): 2.79
  GA2 (gastroprotective activity calculated for lesion size): 2.99
  Large round Amt.: 3.9 ± 0.8
  Large round Size: 2.4 ± 0.6
  Lesion Size: 7.5 ± 1.5
  Linear Amt.: 2.5 ± 0.6
  Linear Size: 4.5 ± 1.0
  Pauls Index: 7.92
  Small round Amt.: 2.4 ± 0.7
  Small round Size: 0.7 ± 0.2
  Total Amt.: 8.8 ± 1.4
  Total Size: 7.5 ± 1.5
  Ulcer Index: 6.75
